What was measured:
[1] = tested on: insulinoma cell line RIN 1046-38; experiment: cAMP formation in insulinoma cell line; format: cell-based, rat; details: for effects on the formation of cAMP: 5 nM and 50 pM; for effect on cAMP levels: 0.5 µM
Description: Cells were incubated for 10 minutes in the presence of 0, 10^-11, 10^-9, or 10^-7M peptides.

[2] = tested on: RINS-38 insulinoma cells; experiment: Cellular cAMP levels (Table 2); format: cell-based, rat; design: cAMP: unit not given here; details: for stimulation of cAMP levels: even at 10^-11M; for cAMP: 10 minutes
Description: Cells were grown as described in Example 1, in […] culture dishes. Varying amounts of glucagon-like peptides were added to culture wells in triplicate. After permitting incubation for 10 minutes, the total cell media was examined for cAMP, and the concentration of cAMP was determined. Twenty microliters from each culture well was assayed.

[3] = tested on: rat pancreas; experiment: Pancreatic perfusion assay of insulinotropic activity (isolated perfused rat pancreas, insulin radioimmunoassay); format: in vivo
Description: The insulinotropic property of a compound may be determined by providing that compound to animal cells, or injecting that compound into animals and monitoring the release of immunoreactive insulin (IRI) into the media or circulatory system of the animal, respectively. The presence of IRI is detected through the use of a radioimmunoassay which can specifically detect insulin. Although any radioimmunoassay capable of detecting the presence of IRI may be employed, It is preferable to use a modification of the assay method of Albano, J.D.M., et al., (Acta Endocrinol. 70:487-509 (1972)). In this modification, a phosphate/albumin buffer with a pH of 7.4 was employed. The incubation was prepared with the consecutive condition of 500 µl of phosphate buffer, 50 µl of perfusate sample or rat insulin standard in perfusate, 100 µl of anti-insulin antiserum (Wellcome Laboratories; 1:40,000 dilution), and 100 µl of [^125I] insulin, giving a total volume of 750 µl in a 10 x 75-mm disposable glass tube. After incubation for 2-3 days at 4°C, free insulin was separated from antibody-bound insulin by charcoal separation. The assay sensitivity was 1-2 µU/ml.
The insulinotropic property of a compound may also be determined by pancreatic infusion. The in situ isolated perfused rat pancreas preparation was a modification of the method of Penhos, J.C., et al. (Diabetes 18:733-738 (1969)). In accordance with such a method, fasted rats (preferably male Charles River strain albino rats), weighing 350-600 g, are anesthetized with an intraperitoneal injection of Amytal Sodium (Eli Lilly and Co., 160 ng/kg). Renal, adrenal, gastric, and lower colonic blood vessels are ligated. The entire intestine is resected except for about four cm of duodenum and the descending colon and rectum. […] The perfusate is preferably a modified Krebs-Ringer bicarbonate buffer with 4% dextran T70 and 0.2% bovine serum albumin (fraction V), and is preferably bubbled with 95% O2 and 5% CO2. A nonpulsatile flow, four-channel roller-bearing pump (Buchler polystatic, Buchler Instruments Division, Nuclear-Chicago Corp.) is preferably used, and a switch from one perfusate source to another is preferably accomplished by switching a three-way stopcock.
Isolated rat pancreas was prepared according to the method of Weir, G.C., et al., (J. Clin. Invest. 54:1403-1412 (1974)), and Penkos, J.C., et al. (Diabetes 18:733-738 (1969)). The perfusate contained bicarbonate buffer (pH 7.4) and 120 mg/dl glucose, 4% dextran T-70, and 0.2% bovine serum albumin, and was equilibrated with 95% oxygen and 5% carbon dioxide. The first 20 minutes of each perfusion was an equilibrium period. After this initial period, aliquots of perfusate were removed every 2-4 min for additional 20 min, thus allowing the system to equilibrate for a total of 40 min. The perfusion, including any added insulinotropic peptide, was for 6 min and samples were collected at 1-min intervals. When more than one perfusion was to be performed, the peptide perfusions were followed by equilibration periods of 20 min, during which four samples 5 min apart were collected. […] Again, samples 1 min apart were collected. The entire perfusion time was between 70 and 85 mm.
In each aliquot of perfusate obtained, insulin was determined by radioimmunoassay.

[4] = Biological half-life
[5] = Stability in culture medium (HPLC and radioimmunoassay); format: in vitro ADME; details: 24 hr; conditioned medium containing 01% bovine serum albumin
Description: To assess the stability of the […] peptide in the experimental conditions, GLP-1 (1-37) was incubated for 24 hr in culture medium alone or in medium supplemented with either 0.1% bovine serum albumin or 10% fetal bovine serum. Aliquots of media were analyzed by high-pressure liquid chromatography and radioimmunoassay.

[6] = tested on: Rat insulinoma cells of cell line RIN-38; experiment: mRNA levels by Northern hybridization in insulinoma cells; format: cell-based; details: peptide 10^-7M; 25 mM glucose
Description: The cells were maintained in DMEM (Gibco) at a glucose concentration of 4,500 mg/L and supplemented with 10% heat-inactivated fetal bovine serum (Gibco), 100 U/ml of penicillin and 100 µg/ml of streptomycin. Incubations were carried out at 37°C in 95% air:5% CO2. Cells grown in the above manner were washed and resuspended in DMEM (Gibco) containing 0.1% bovine serum albumin and 25 mM glucose. […] In all cases, the concentration of peptides was 10^-7M. Incubations were for six hours.
Messenger RNAs specific for insulin, actin, or angiotensinogen were identified by Northern hybridization as follows: cellular RNA was extracted from solid tumors and cells by homogenization in guanidine thiocyanate and sedimentation through a cesium chloride cushion. Poly A^+ RNA was isolated by oligo dT cellulose chromatography (Aviv, H., et al., Proc. Natl. Acad. Sci., USA 69:1408-1412 (1972)). Twenty micrograms of total RNA from each sample were fractionated by size on a 1.4% agarose gel after denaturation in glyoxal, followed by electrotransfer to a nylon membrane (Nytran; Schleicher and Schuell). […] The relative amounts of the specific mRNA were determined by microdensitometry.

Substance: GLP-1-(1-36)-NH2: GLP-1 (1-36 des-gly-arg amide); Peninsula Laboratories
- effects on the formation of cAMP [1]: negligible
- effect on cAMP levels [1]: increased cAMP levels

Substance: GLP-1 (1-37): GLP-1 polypeptide having all amino acids from 1 (N-terminus) through 37 (C-terminus)
- stimulation of cAMP levels [2]: neither GLP-1 (1-37) nor GLP-II exhibited such activity
- cAMP ([2]; peptide 10^-6 M): 170
- cAMP ([2]; peptide 10^-7 M): 120
- cAMP ([2]; peptide 10^-8 M): 160
- cAMP ([2]; peptide 10^-9 M): 100
- cAMP ([2]; peptide 10^-10 M): 90
- cAMP ([2]; peptide 10^-11 M): 90
- effects on the formation of cAMP [1]: negligible
- effect on cAMP levels [1]: increased cAMP levels
- increase in serum insulin concentrations ([3]; 5 x 10^-7M): 3.4 fold
- Insulin Produced ([3]; 5x10^-7M, 0 minutes (before peptide added)): 1,400 picograms/ml
- Insulin Produced ([3]; 5x10^-7M, 1 minute): 4,700 picograms/ml
- Insulin Produced ([3]; 5x10^-7M, 2 minutes): 2,900 picograms/ml
- Insulin Produced ([3]; 5x10^-7M, 3 minutes): 2,200 picograms/ml
- increase in serum insulin levels ([3]; 5 x 10^-8M): two-fold
- Insulin Produced ([3]; 5x10^-8M, 0 minutes (before peptide added)): 3,000 picograms/ml
- Insulin Produced ([3]; 5x10^-8M, 1 minute): 6,000 picograms/ml
- Insulin Produced ([3]; 5x10^-8M, 2 minutes): 2,000 picograms/ml
- Insulin Produced ([3]; 5x10^-8M, 3 minutes): 2,000 picograms/ml
- increase in serum insulin levels ([3]; 5 x 10^-10M): 20%
- Insulin Produced ([3]; 5x10^-10M, 0 minutes (before peptide added)): 500 picograms/ml
- Insulin Produced ([3]; 5x10^-10M, 1 minute): 600 picograms/ml
- Insulin Produced ([3]; 5x10^-10M, 2 minutes): 640 picograms/ml
- Insulin Produced ([3]; 5x10^-10M, 3 minutes): 430 picograms/ml
- effect on insulin levels ([3]; 5 x 10^-11M): without effect
- Insulin Produced ([3]; 5x10^-11M, 0 minutes (before peptide added)): 340 picograms/ml
- Insulin Produced ([3]; 5x10^-11M, 1 minute): 180 picograms/ml
- Insulin Produced ([3]; 5x10^-11M, 2 minutes): 230 picograms/ml
- Insulin Produced ([3]; 5x10^-11M, 3 minutes): 340 picograms/ml
- Insulin Produced ([3]; 5x10^-12M, 0 minutes (before peptide added)): 50 picograms/ml
- Insulin Produced ([3]; 5x10^-12M, 1 minute): 50 picograms/ml
- Insulin Produced ([3]; 5x10^-12M, 2 minutes): 160 picograms/ml
- Insulin Produced ([3]; 5x10^-12M, 3 minutes): 50 picograms/ml
- insulinotropic activity ([3]; 10^-11 M, five minute perfusion): inactive
- insulin-releasing activity ([3]; even at concentrations as high as 5 X 10^-7M): no insulin-releasing activity
- biological half-life [4]: 30-50 minutes
- stability: cleavage after incubation [5]: a small peak of GLP-1 (7-37) appeared

Substance: GLP-II: glucagon-like peptide 2 (GLP-2) (HADGSFSDEMNTILDNLAARDFINWLIQTKITD; Glucagon-like peptide 2; UniProt P01275 146-178, looked up)
- effect on insulin mRNA levels [6]: no effects
- stimulation of cAMP levels [2]: neither GLP-1 (1-37) nor GLP-II exhibited such activity
